Patent US10981932B2, “Macrocyclic indole derivatives” (Bayer Aktiengesellschaft, priority 2016, dated 2021)
Where a name gives a salt, the structure may show the parent alone. Read-outs that look alike come from different tables or passages of the source.

Columns and labels:
[1] = rcm bond, Grubbs 2nd generation catalyst
[2] = test system: SUDHL10; experiment: Induction of caspase-3/7 activity (Caspase-Glo 3/7), SUDHL10; assay type: cell-based; conditions: caspase-3/7 induction, SUDHL10 cells, 3 h treatment; median
How it was run: (§1)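 DLBCL cells treated with compounds for 3 h at 37 °C, then caspase-3/7 activity read by Caspase-Glo 3/7 luminescence. Medium-only background subtracted; EC50 fitted with C0 fixed at 1 and top set to the reference compound's maximal induction.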

[3] = test system: OPM2; experiment: Anti-proliferative effect (CellTiter-Glo, 72 h), OPM2; assay type: cell-based; conditions: OPM2 cells, median, read-out: IC50 antiproliferation assay OPM2 [M] (median)
How it was run: (§2)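 A time zero plate, read with CellTiter-Glo shortly after seeding, served as baseline; compound-treated plates were incubated 72 h at 37 °C and then read identically by luminescence.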

[4] = biological target: MCL-1 (Homo sapiens, UniProt Q07820); experiment: Protein-protein interaction assay MCL-1/Noxa BH3 peptide (MCL-1 assay), TR-FRET; assay type: binding; conditions: MBP-MCL-1 / Noxa BH3-derived peptide, median
How it was run: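 TR-FRET, 665/622 nm emission ratio (excitation 330–350 nm), measured MCL-1/Noxa complex formation. 1 nM MBP-MCL-1, 50 mM Tris/HCl pH 7, 0.1% BGG, 2 mM DTT. Incubation 1 h at 22 °C, then overnight at 4 °C. IC50 by 4-parameter regression, normalized to DMSO (0%) and no-MCL-1 (100%) controls.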

[5] = test system: SUDHL5; experiment: Anti-proliferative effect (CellTiter-Glo, 72 h), SUDHL5; assay type: cell-based; conditions: SUDHL5 cells, antiproliferation, 72 h incubation, median, read-out: Antiproli SUDHL5 [M] (median)
How it was run: as §2

[6] = test system: SUDHL10; experiment: Anti-proliferative effect (CellTiter-Glo, 72 h), SUDHL10; assay type: cell-based; conditions: SUDHL10 cells, antiproliferation, 72 h incubation, median, read-out: Antiproli SUDHL10 [M] (median)
How it was run: as §2

[7] = test system: SUDHL5; experiment: Induction of cytotoxicity (CellTiter-Glo, 5 h), SUDHL5; conditions: read-out: Cytotox SUDHL5 [M] (median); SUDHL5 cells, cytotoxicity induction, CellTiter-Glo, 5 h incubation, median
[8] = test system: SUDHL10; experiment: Induction of cytotoxicity (CellTiter-Glo, 5 h), SUDHL10; conditions: read-out: Cytotox SUDHL10 [M] (median); SUDHL10 cells, cytotoxicity induction, CellTiter-Glo, 5 h incubation, median
Experimental: Therefore, cytotoxicity assays were run in parallel in SUDHL5 and SUDHL10 cells.
The different cell lines were plated in culture medium (RPMI 1640 [GIBCO #22400-089]supplemented with 10% Fetal Bovine Serum) at a density of 3.300 cells in 30 μl/well in a sterile, solid black, flat bottom, polystyrene, TC-treated 384-well microplate (Corning #3571) using Multidrop Combi Reagent Dispenser. As a control, medium without cells was also added to the plate. Cells were incubated in a humidified incubator at 37° C. overnight. On the next day, the cells were treated with compounds (stock solution, 10 mM in DMSO) using the HP D300 Digital Dispenser in a concentration range of 3.3×10e-5 M (33 μM) to 5×10e-9 M (5 nM) in a single-dot curve with at least 16 dilutions and a DMSO concentration of 0.33%. Rim wells were excluded. The cells were incubated for 5 h hours in a humidified incubator at 37° C. After this incubation, 30 μl of CellTiter-Glo@ Luminescent Cell Viability reagent (Promega, G7573) was added to each well using the Multidrop Combi Reagent Dispenser, followed by 15 min incubation on a shaker at room temperature. Finally, luminescence was read at 0.1 ms, with a gain of 3000 using the PHERAstar FS microplate reader (BMG Labtech).
The Bella DRC Master Sheet was used to calculate IC50s, with fixed CI=0 and C0=1.

[9] = test system: A2780; experiment: Anti-proliferative effect (CellTiter-Glo, 72 h), A2780; assay type: cell-based; conditions: A2780 cells, median, read-out: IC50 antiproliferation assay A2780 [M] (median)
How it was run: as §2

[10] = test system: MV-4-11; experiment: Anti-proliferative effect (CellTiter-Glo, 72 h), MV-4-11; assay type: cell-based; conditions: MV-4-11 cells, median, read-out: IC50 antiproliferation assay MV-4-11 [M] (median)
How it was run: as §2

[11] = test system: SUDHL5; experiment: Induction of caspase-3/7 activity (Caspase-Glo 3/7), SUDHL5; assay type: cell-based; conditions: caspase-3/7 induction, SUDHL5 cells, 3 h treatment; median
How it was run: as §1

MCL-1, sequence (Q07820 whole entry): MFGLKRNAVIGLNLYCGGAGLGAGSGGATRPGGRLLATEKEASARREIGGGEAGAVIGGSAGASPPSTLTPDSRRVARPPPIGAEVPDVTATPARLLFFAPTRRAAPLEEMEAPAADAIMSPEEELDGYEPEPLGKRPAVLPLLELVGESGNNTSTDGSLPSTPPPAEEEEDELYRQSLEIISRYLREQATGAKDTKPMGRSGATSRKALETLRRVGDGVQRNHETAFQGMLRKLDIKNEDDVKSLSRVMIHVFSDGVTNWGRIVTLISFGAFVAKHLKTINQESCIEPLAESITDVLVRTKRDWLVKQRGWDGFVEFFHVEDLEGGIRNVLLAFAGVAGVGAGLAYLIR

## CCOC(=O)c1c(CCCOc2cccc3ccccc23)c2cccc3c2n1CC=CCOCc1c-3c(COc2ccc(C3(OC)CCOCC3)cc2)nn1C (mixture of isomers)
[1]; from C=CCOCc1c(-c2cccc3c(CCCOc4cccc5ccccc45)c(C(=O)OCC)n(CC=C)c23)c(COc2ccc(C3(OC)CCOCC3)cc2)nn1C, dichloromethane, 78.4 mM, 25.0 °C, 72.0 h
  ring closure, yield of all isomers: 39.1%

## CCOC(=O)c1c(CCCOc2cccc3ccccc23)c2cccc3c2n1CC=CCOCc1c-3cnn1C (mixture of isomers)
[1]; from C=CCOCc1c(-c2cccc3c(CCCOc4cccc5ccccc45)c(C(=O)OCC)n(CC=C)c23)cnn1C, dichloromethane, 78.2 mM, 25.0 °C, 24.0 h
  ring closure, yield of all isomers: 42.1%

## CCOC(=O)c1c(CCCOc2cccc3ccccc23)c2cccc3c2n1CC=CCOCc1c-3c(COCc2ccccc2)nn1C (mixture of isomers)
[1]; from C=CCOCc1c(-c2cccc3c(CCCOc4cccc5ccccc45)c(C(=O)OCC)n(CC=C)c23)c(COCc2ccccc2)nn1C, dichloromethane, 76.8 mM, 25.0 °C, 72.0 h
  ring closure, yield of all isomers: 74.2%

## CCOC(=O)c1c(CCCOc2cccc3ccccc23)c2cccc3c2n1CC=CCOCc1c-3c(CN2CCOCC2)nn1C (mixture of isomers)
[1]; from C=CCOCc1c(-c2cccc3c(CCCOc4cccc5ccccc45)c(C(=O)OCC)n(CC=C)c23)c(CN2CCOCC2)nn1C, dichloromethane, 79.5 mM, 25.0 °C, 48.0 h
  ring closure, yield of all isomers: 14.2%

## CCOC(=O)c1c(CCCOc2cccc3ccccc23)c2cccc3c2n1CC=CCOCc1c-3c(COc2ccc(C3(O)CCOCC3)cc2)nn1C (mixture of isomers)
[1]; from C=CCOCc1c(-c2cccc3c(CCCOc4cccc5ccccc45)c(C(=O)OCC)n(CC=C)c23)c(COc2ccc(C3(O)CCOCC3)cc2)nn1C, dichloromethane, 80.0 mM, 25.0 °C, 72.0 h
  ring closure, yield of all isomers: 66.1%

## CCOC(=O)c1c(CCCOc2cccc3ccccc23)c2cccc3c2n1CC=CCOCc1c-3c(COc2ccccc2)nn1C (mixture of isomers)
[1]; from C=CCOCc1c(-c2cccc3c(CCCOc4cccc5ccccc45)c(C(=O)OCC)n(CC=C)c23)c(COc2ccccc2)nn1C, dichloromethane, 78.3 mM, 25.0 °C, 24.0 h
  ring closure, yield of all isomers: 56.9%

## CCOC(=O)c1c(CCCOc2cccc3ccccc23)c2cccc3c2n1CC=CCOCc1nn(C)c(C)c1-3 (mixture of isomers)
[1]; from C=CCOCc1nn(C)c(C)c1-c1cccc2c(CCCOc3cccc4ccccc34)c(C(=O)OCC)n(CC=C)c12, dichloromethane, 77.8 mM, 25.0 °C, 16.0 h
  ring closure, yield of all isomers: 15%

## CCOC(=O)c1c(CCCOc2cccc3ccccc23)c2cccc3c2n1CC=CCOCc1c-3c(COC(C)C)nn1C
[1]; from C=CCOCc1c(-c2cccc3c(CCCOc4cccc5ccccc45)c(C(=O)OCC)n(CC=C)c23)c(COC(C)C)nn1C, dichloromethane, 77.5 mM, 25.0 °C, 24.0 h
  ring closure, yield of all isomers: 89.2%

## CCOC(=O)c1c(CCCOc2cccc3ccccc23)c2cccc3c2n1CC=CCOCCc1c-3c(C)nn1C (mixture of isomers)
[1]; from C=CCOCCc1c(-c2cccc3c(CCCOc4cccc5ccccc45)c(C(=O)OCC)n(CC=C)c23)c(C)nn1C, dichloromethane, 50.9 mM, 25.0 °C, 48.0 h
  ring closure, yield of all isomers: 47.5%

## CCOC(=O)c1c(CCCO[Si](C)(C)C(C)(C)C)c2cccc3c2n1CC=CCOCc1c-3c(C)nn1C (mixture of isomers)
[1]; from C=CCOCc1c(-c2cccc3c(CCCO[Si](C)(C)C(C)(C)C)c(C(=O)OCC)n(CC=C)c23)c(C)nn1C, dichloromethane, 48.0 mM, 25.0 °C, 16.0 h
  ring closure, yield of all isomers: 52.7%

## CCOCc1nn(C)c2c1-c1cccc3c(CCCOc4cccc5ccccc45)c(C(=O)OCC)n(c13)CC=CCOC2 (mixture of isomers)
[1]; from C=CCOCc1c(-c2cccc3c(CCCOc4cccc5ccccc45)c(C(=O)OCC)n(CC=C)c23)c(COCC)nn1C, dichloromethane, 76.0 mM, 25.0 °C, 24.0 h
  ring closure, yield of all isomers: 47.3%

## CCOC(=O)c1c(CCCOc2cccc3ccccc23)c2cccc3c2n1CC=CCOCc1c-3c(COc2ccc(N3CCOCC3)cc2)nn1C (mixture of isomers)
[1]; from C=CCOCc1c(-c2cccc3c(CCCOc4cccc5ccccc45)c(C(=O)OCC)n(CC=C)c23)c(COc2ccc(N3CCOCC3)cc2)nn1C, dichloromethane, 39.1 mM, 25.0 °C, 44.0 h
  ring closure, yield of all isomers: 53.3%

## CCOC(=O)c1c(CCCOc2cccc3ccccc23)c2cccc3c2n1CC=CCN(Cc1ccccc1)c1c-3c(C)nn1C
[1]; from C=CCN(Cc1ccccc1)c1c(-c2cccc3c(CCCOc4cccc5ccccc45)c(C(=O)OCC)n(CC=C)c23)c(C)nn1C, toluene, 6.11 mM, 90.0 °C, 5.5 h
  ring closure, yield of all isomers: 96.7%

## COCc1c2c(nn1C)COCCCCn1c(C(=O)O)c(CCCOc3cccc4ccccc34)c3cccc-2c31 (single isomer, unassigned; enantiomer 2) [Example 101, 3-(methoxymethyl)-2-methyl-7-[3-(naphthalen-1-yloxy)propyl]-2,10,11,12,13,15-hexahydropyrazolo[4′,3′:9,10][1,6]oxazacycloundecino[8,7,6-hi]indole-8-carboxylic acid-N-ethylethanamine Salt (Enantiomer 2)]
[2]
  EC50: 3.43 µM
[3]; Homo sapiens, OPM-2, 72 h
  IC50: 4.37e-06 M
[4]
  IC50: 0.00185 µM
[5]
  IC50: 1.32e-06 M
[6]
  IC50: 4.47e-06 M
[7]
  IC50: 2.03e-06 M
[8]
  IC50: 4e-06 M
[9]
  IC50: 2.71e-05 M
[10]; Homo sapiens, MV4-11, 72 h
  IC50: 1.85e-06 M
[11]
  EC50: 1.74 µM

## CCN(CC)S(=O)(=O)N1CCN(c2ccc(OCc3nn(C)c4c3-c3cccc5c(CCCOc6cccc7ccccc67)c(C(=O)O)n(c35)CCCCOC4)cc2)CC1 (single isomer, unassigned; enantiomer 2) [Example 1-5, 3-({4-[4-(diethysulfamoyl)piperazin-1-yl]phenoxy}methyl)-1-methyl-7-[3-(naphthalen-1-yloxy)propyl]-1,10,11,12,13,15-hexahydropyrazolo[4′,3′:9,10][1,6]oxazacycloundecino[8,7,6-hi]indole-8-carboxylic Acid (Enantiomer 2)]
[2]
  EC50: 2.62 µM
[3]
  IC50: 1.13e-06 M
[4]
  IC50: 0.00151 µM
[5]
  IC50: 7.67e-07 M
[6]
  IC50: 1.02e-06 M
[7]
  IC50: 3.2e-06 M
[8]
  IC50: 4.77e-06 M
[9]
  IC50: 6.24e-06 M
[10]; Homo sapiens, MV4-11, 72 h
  IC50: 7.2e-07 M
[11]
  EC50: 2.52 µM

## COc1ccccc1-c1ncc(OCc2nn(C)c3c2-c2cccc4c(CCCOc5cccc6ccccc56)c(C(=O)O)n(c24)CCCN(C)C3)cn1 (single isomer, unassigned) [Example 1-92, 11-({[2-(2-methoxyphenyl)pyrimidin-5-yl]oxy}methyl)-7,9-dimethyl-1-[3-(naphthalen-1-yloxy)propyl]-4,5,6,7,8,9-hexahydropyrazolo[3′,4′:7,8][1,5]diazecino[9,10,1-hi]indole-2-carboxylic acid-N-ethylethanamine Salt]
[2]
  EC50: 4.47 µM
[3]
  IC50: 9.6e-06 M
[4]
  IC50: 0.0068 µM
[5]
  IC50: 3.21e-06 M
[6]
  IC50: 3.83e-06 M
[7]
  IC50: 2.9e-06 M
[8]
  IC50: 5.77e-06 M
[9]
  IC50: 6.23e-06 M
[10]
  IC50: 1.57e-06 M
[11]
  EC50: 3.88 µM

## Cn1nc(COc2ccc(N3CCN(S(=O)(=O)C4CC4)CC3)cc2)c2c1COCCCCn1c(C(=O)O)c(CCCOc3cccc4ccccc34)c3cccc-2c31 (single isomer, unassigned; enantiomer 1) [Example 1-12, 3-({4-[4-(cyclopropylsulfonyl)piperazin-1-yl]phenoxy}methyl)-1-methyl-7-[3-(naphthalen-1-yloxy)propyl]-1,10,11,12,13,15-hexahydropyrazolo[4′,3′:9,10][1,6]oxazacycloundecino[8,7,6-hi]indole-8-carboxylic Acid (Enantiomer 1)]
[2]
  EC50: 20.4 µM
[3]
  IC50: > 3.3e-05 M
[4]
  IC50: 0.0688 µM
[5]
  IC50: 5.72e-06 M
[6]
  IC50: 8.96e-06 M
[7]
  IC50: 1.73e-05 M
[8]
  IC50: 1.43e-05 M
[9]
  IC50: > 3.3e-05 M
[10]
  IC50: 6.78e-06 M
[11]
  EC50: 18.3 µM
